Assays:
[1] = biological target: T1, Retinoic acid receptor RXR-gamma (Homo sapiens, UniProt P48443); assay: Binding affinity towards Retinoic acid receptor RXR-gamma by displacing 3.4 nM 3[H]-9-cis-RA; IA = Inactive
T1 sequence (P48443 whole entry): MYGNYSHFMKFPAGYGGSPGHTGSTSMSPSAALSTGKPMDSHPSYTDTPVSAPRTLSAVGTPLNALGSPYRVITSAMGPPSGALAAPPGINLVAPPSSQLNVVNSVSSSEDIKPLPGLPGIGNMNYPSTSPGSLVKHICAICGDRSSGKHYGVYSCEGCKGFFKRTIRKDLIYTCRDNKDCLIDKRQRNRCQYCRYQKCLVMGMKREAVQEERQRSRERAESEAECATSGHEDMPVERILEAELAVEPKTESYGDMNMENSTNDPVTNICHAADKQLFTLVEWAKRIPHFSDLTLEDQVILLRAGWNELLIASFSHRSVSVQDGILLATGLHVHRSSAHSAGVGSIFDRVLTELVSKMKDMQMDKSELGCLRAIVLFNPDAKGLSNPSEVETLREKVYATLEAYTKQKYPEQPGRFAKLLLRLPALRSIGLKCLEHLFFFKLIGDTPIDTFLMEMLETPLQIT

[2] = biological target: T2, Retinoic acid receptor beta (Homo sapiens, UniProt P10826); assay: Binding affinity towards cRAR-beta-2 receptor by displacing 1.1 nM 3[H]-9-cis-RA; IA = Inactive
T2 sequence (P10826 whole entry): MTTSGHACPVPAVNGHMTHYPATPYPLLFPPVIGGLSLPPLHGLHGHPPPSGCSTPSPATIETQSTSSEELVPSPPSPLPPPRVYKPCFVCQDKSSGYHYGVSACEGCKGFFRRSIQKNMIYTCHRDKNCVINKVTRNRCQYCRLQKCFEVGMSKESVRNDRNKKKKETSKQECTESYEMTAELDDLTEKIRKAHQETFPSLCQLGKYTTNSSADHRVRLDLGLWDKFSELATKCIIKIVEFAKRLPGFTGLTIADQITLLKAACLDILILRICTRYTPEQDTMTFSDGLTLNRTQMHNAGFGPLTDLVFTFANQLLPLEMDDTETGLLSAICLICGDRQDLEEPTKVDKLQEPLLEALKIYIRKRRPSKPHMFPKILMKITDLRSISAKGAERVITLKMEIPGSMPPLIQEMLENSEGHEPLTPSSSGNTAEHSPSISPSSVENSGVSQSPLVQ

[3] = biological target: T2, Retinoic acid receptor beta; assay: Binding affinity towards cRAR-beta-2 receptor by displacing 0.82 nM 3[H]-all-trans-RA; IA = Inactive
[4] = biological target: T1, Retinoic acid receptor RXR-gamma; assay: Binding affinity towards Retinoic acid receptor RXR-gamma by displacing 3.4 nM 3[H]-9-cis-RA; No binding competition
[5] = biological target: T2, Retinoic acid receptor beta; assay: Binding affinity towards cRARbeta2 receptor by displacing 0.82 nM 3[H]all-trans-RA
[6] = biological target: T3, Retinoic acid receptor alpha (Homo sapiens, UniProt P10276); assay: Binding affinity towards human Retinoic acid receptor alpha
T3 sequence (P10276 whole entry): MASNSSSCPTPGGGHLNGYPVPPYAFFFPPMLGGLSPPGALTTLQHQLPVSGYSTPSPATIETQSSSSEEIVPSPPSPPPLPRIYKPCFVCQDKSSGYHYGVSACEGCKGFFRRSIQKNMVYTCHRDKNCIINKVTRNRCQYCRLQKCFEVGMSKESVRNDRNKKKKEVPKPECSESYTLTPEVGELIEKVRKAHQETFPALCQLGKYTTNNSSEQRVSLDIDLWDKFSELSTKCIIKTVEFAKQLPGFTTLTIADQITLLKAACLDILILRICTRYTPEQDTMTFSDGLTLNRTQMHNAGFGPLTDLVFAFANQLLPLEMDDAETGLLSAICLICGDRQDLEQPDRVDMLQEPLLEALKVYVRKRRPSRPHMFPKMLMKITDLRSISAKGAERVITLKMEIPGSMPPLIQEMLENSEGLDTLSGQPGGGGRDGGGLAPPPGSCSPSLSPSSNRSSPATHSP

[7] = biological target: T4, Retinoic acid receptor gamma (Homo sapiens, UniProt P13631); assay: Binding affinity towards human Retinoic acid receptor gamma
T4 sequence (P13631 whole entry): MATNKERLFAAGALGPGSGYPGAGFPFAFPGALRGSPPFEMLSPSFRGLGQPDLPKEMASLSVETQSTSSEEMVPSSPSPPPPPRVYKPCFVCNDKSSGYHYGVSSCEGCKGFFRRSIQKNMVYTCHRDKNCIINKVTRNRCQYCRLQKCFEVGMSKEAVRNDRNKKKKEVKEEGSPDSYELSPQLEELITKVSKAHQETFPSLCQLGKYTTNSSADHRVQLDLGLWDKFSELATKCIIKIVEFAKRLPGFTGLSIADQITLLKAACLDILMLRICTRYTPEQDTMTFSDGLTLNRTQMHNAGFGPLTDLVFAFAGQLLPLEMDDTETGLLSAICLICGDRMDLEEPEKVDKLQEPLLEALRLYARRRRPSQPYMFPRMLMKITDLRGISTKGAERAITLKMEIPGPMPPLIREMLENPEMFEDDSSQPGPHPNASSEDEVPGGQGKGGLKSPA

[8] = biological target: T1, Retinoic acid receptor RXR-gamma; assay: Binding affinity towards Retinoic acid receptor RXR-gamma by displacing 3.4 nM 3[H]-9-cis-RA
[9] = biological target: T2, Retinoic acid receptor beta; assay: Binding affinity towards cRAR-beta-2 receptor by displacing 1.1 nM 3[H]-9-cis-RA

Structure (SMILES) | Ki [1] | Ki [2] | Ki [3] | Ki [4] | Ki [5] | Ki [6] | Ki [7] | Ki [8] | Ki [9]
CCOC(=O)[C@H]1C[C@@]1(C)/C=C/C=C(C)/C=C/C1=C(C)CCCC1(C)C | Not Active | Not Active | Not Active |  |  |  |  |  | 
CCOC(=O)[C@@H]1C[C@@]1(C)/C=C/C=C(C)/C=C/C1=C(C)CCCC1(C)C | Not Active | Not Active | Not Active |  |  |  |  |  | 
C/C(=C\c1ccc(C(=O)O)cc1)c1ccc2c(c1)C(C)(C)CCC2(C)C |  |  |  | Not Active |  |  |  |  | 
CC(=C/C(=O)O)/C=C/C1CC1/C=C/C1=CC(C)(C)CCC1(C)C (stereo not drawn) |  |  |  |  | > 1100 nM | > 4000 nM | > 4000 nM | > 2800 nM | > 1200 nM
CC(/C=C/C1CC1/C=C/C1=CC(C)(C)CCC1(C)C)=C\C(=O)O (stereo not drawn) |  |  |  |  | 11 nM | 3.1 nM | 32 nM | > 7200 nM | 13 nM
CC1=C(/C=C/C(C)=C/C=C/C(C)=C/C(=O)O)C(C)(C)CCC1 [TRETINOIN] |  |  |  | Not Active |  |  |  |  | 
